In patent publication US12065445B2, “CDK2 inhibitors and methods of using the same” (Cedilla Therapeutics, Inc., priority 2021, dated 2024) one finds IC50 data, which are given here for 52 compounds.

The test relates to Kuramochi cells. The experiment in a line: BrdU Cell Proliferation Assay. The class given is cell-based. To be noted: read-out: BrdU - KURAMOCHI.1: IC50. Summed up: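 Signal is 450 nm absorbance from a peroxidase anti-BrdU ELISA after a 1-hour BrdU label, background-subtracted and normalized to DMSO-treated wells. Kuramochi cells (2,000 per well) had been exposed to compound for 4 days. Dosing used a 10-point dose response in 3-fold steps.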

Where only a bound is given, the exact number is not on record here.

In the case of `COCCNC(=O)[C@H]1CN(C(=O)c2cnn(Cc3ccccc3)c2)CC12CN(C(=O)[C@H]1CC1(C)C)C2` [I-122B], the IC50 is greater than 10 µM.

For the compound `C[C@@H](OCC1CCCCC1)[C@H](NC(=O)[C@@H]1CN(C(=O)c2cnn(Cc3ccccc3)c2)CC12CN(C(=O)[C@H]1CC1(C)C)C2)C(N)=O` [I-200], the IC50 fell in the range of 0.5 to 5 µM.

Regarding `CC1(C)C[C@@H]1C(=O)N1CC2(CN(C(=O)c3cnn(Cc4ccccc4)c3)C[C@H]2C(=O)N[C@@H]2CC[C@@H]2O)C1` [I-201B], the IC50 is greater than 10 µM.

Turning to `CNC(=O)[C@@H](NC(=O)[C@H]1CN(C(=O)c2n[nH]c3ccccc23)CC12CN(C(=O)[C@H]1CC1(C)C)C2)[C@@H](C)OCc1ccccc1` [I-112B], the IC50 was greater than 10 µM.

Consider `C[C@@H](OCc1ccccc1)[C@H](NC(=O)C1CN(C(=O)c2cnn(Cc3ccccc3)c2)CC12CN(C(=O)[C@H]1CC1(C)C)C2)C(=O)NCCC(=O)O` (stereo partly shown) [I-29], for which the IC50 is greater than 10 µM.

In the case of `CNC(=O)[C@@H](NC(=O)[C@H]1CN(C(=O)c2cnc(C3CC3)s2)CC12CN(C(=O)[C@H]1CC1(C)C)C2)[C@@H](C)OCC1CCCCC1` [I-178B], the concentration for half-maximal inhibition (IC50) was greater than 10 µM.

In the case of `C[C@@H](OCC1CCCCC1)[C@H](NC(=O)[C@@H]1CN(C(=O)c2cnn(Cc3ccccc3)c2)CC12CN(C(=O)[C@H]1CC1(C)C)C2)C(=O)N1CCC(CN)CC1` [I-219], the IC50 was 0.5 to 5 µM.

Turning to `CC1(C)C[C@@H]1C(=O)N1CC2(CN(C(=O)c3cnn(Cc4ccccc4)c3)C[C@@H]2C(=O)Nc2ccc(Cc3ccccc3)cc2)C1` [I-84B], the half-maximal inhibitory concentration (IC50) is 5 to 10 µM.

As for `CC1(C)C[C@@H]1C(=O)N1CC2(CN(C(=O)c3cnn(Cc4ccccc4)c3)C[C@H]2C(=O)N2CCC[C@H](OCC3CCCCC3)C2)C1` [I-236], the concentration for half-maximal inhibition (IC50) is greater than 10 µM.

For the compound `CNC(=O)[C@@H](NC(=O)[C@@H]1CN(Cc2cnn(C)c2)CC12CN(C(=O)[C@H]1CC1(C)C)C2)[C@@H](C)OCc1ccccc1` [I-47A], the concentration for half-maximal inhibition (IC50) is greater than 10 µM.

Consider `CNC(=O)[C@@H](NC(=O)[C@H]1CN(C(=O)c2cnn(Cc3ccccc3)c2)CC12CN(C(=O)c1ccccc1)C2)[C@@H](C)OCc1ccccc1` [I-26B], for which the concentration for half-maximal inhibition (IC50) was greater than 10 µM.

As for `CNC(=O)[C@@H](NC(=O)[C@H]1CN(C(=O)c2scnc2Cl)CC12CN(C(=O)[C@H]1CC1(C)C)C2)[C@@H](C)OCC1CCCCC1` [I-157B], the IC50 was greater than 10 µM.

Regarding `C[C@@H](OCc1ccccc1)[C@H](NC(=O)C1CN(C(=O)c2cnn(Cc3ccccc3)c2)CC12CN(C(=O)[C@H]1CC1(C)C)C2)C(=O)N1CC2(CCC2)C1` (stereo partly shown) [I-106], the IC50 is 0.5 to 5 µM.

As to `CNC(=O)[C@@H](NC(=O)[C@H]1CN(Cc2cnco2)CC12CN(C(=O)[C@H]1CC1(C)C)C2)[C@@H](C)OCc1ccccc1` [I-78B], the half-inhibitory concentration (IC50) was greater than 10 µM.

For the compound `C[C@H](CNC(=O)C1CN(C(=O)c2cnn(Cc3ccccc3)c2)CC12CN(C(=O)C1CC1(C)C)C2)OCc1ccccc1` (stereo partly shown) [I-7], the IC50 is greater than 10 µM.

`CNC(=O)[C@@H](NC(=O)[C@H]1CN(C(=O)c2cnn(CC3CCNCC3)c2)CC12CN(C(=O)[C@H]1CC1(C)C)C2)[C@@H](C)OCc1ccccc1` [I-19B]: the IC50 was greater than 10 µM.

As to `CNC(=O)[C@@H](NC(=O)[C@H]1CN(C(=O)c2cnn(Cc3ccccc3)c2)CC12CN(C(=O)C(C)(C)C#N)C2)[C@@H](C)OCc1ccccc1` [I-76B], the IC50 was greater than 10 µM.

In the case of `CNC(=O)[C@@H](NC(=O)[C@H]1CN(C(=O)c2cnn(Cc3ccccc3)c2)CC12CN(C(=O)CC1(CO)CC1)C2)[C@@H](C)OCc1ccccc1` [I-92B], the IC50 is greater than 10 µM.

As for `CNC(=O)[C@@H](NC(=O)[C@@H]1CN(C(=O)c2cnn(Cc3ccccc3)c2)CC12CN(C(=O)CC1(CO)CC1)C2)[C@@H](C)OCc1ccccc1` [I-92A], the half-maximal inhibitory concentration (IC50) was greater than 10 µM.

As for `CNC(=O)[C@@H](NC(=O)[C@H]1CN(C(=O)c2cnn(Cc3ccccc3)c2)CC12CN(C(=O)C1(CCF)CC1)C2)[C@@H](C)OCc1ccccc1` [I-117B], the half-inhibitory concentration (IC50) was greater than 10 µM.

In the case of `CNC(=O)[C@@H](NC(=O)[C@H]1CN(C(=O)c2cnn(Cc3ccccc3)c2)CC12CN(C(=O)C1(C)CC1)C2)[C@@H](C)OCc1ccccc1` [I-67B], the IC50 was greater than 10 µM.

On to `COc1cccc(CNC(=O)[C@H]2CN(C(=O)c3cnn(Cc4ccccc4)c3)CC23CN(C(=O)[C@H]2CC2(C)C)C3)n1` [I-126B], for which the 50% inhibitory concentration (IC50) was greater than 10 µM.

For the compound `CNC(=O)[C@@H](NC(=O)[C@H]1CN(C(=O)c2cnn(Cc3ccccc3)c2)CC12CN(C(=O)C1(F)CC1)C2)[C@@H](C)OCc1ccccc1` [I-71B], the half-maximal inhibitory concentration (IC50) was greater than 10 µM.

As to `C[C@@H](OCC1CCCCC1)[C@H](NC(=O)C1CN(C(=O)C2CCC(=O)N(C)C2)CC12CN(C(=O)[C@H]1CC1(C)C)C2)C(=O)N1CCCCC1` (stereo partly shown) [I-242], the concentration for half-maximal inhibition (IC50) is greater than 10 µM.

On to `C[C@@H](OCC1CCCCC1)[C@H](NC(=O)[C@@H]1CN(C(=O)c2cnn(Cc3ccccc3)c2)CC12CN(C(=O)[C@H]1CC1(C)C)C2)C(=O)N1CCC[C@@H](N)C1` [I-218], for which the IC50 was in the range of 5 to 10 µM.

Take `CC1(C)C[C@@H]1C(=O)N1CC2(CN(C(=O)c3cnn(Cc4ccccc4)c3)C[C@@H]2C(=O)NC2CCN(C(=O)c3ccccc3)CC2)C1` [I-61B]: the IC50 was greater than 10 µM.

As to `CNC(=O)[C@@H](NC(=O)[C@H]1CN(C(=O)c2cnn(Cc3ccccc3)c2)CC12CN(C(=O)C1(CC3CC3)CC1)C2)[C@@H](C)OCc1ccccc1` [I-116B], the IC50 is greater than 10 µM.

As to `CNC(=O)[C@@H](NC(=O)[C@H]1CN(C(=O)c2cnn(Cc3ccccc3)c2)CC12CN(C(=O)CC(C)C)C2)[C@@H](C)OCc1ccccc1` [I-69B], the IC50 is greater than 10 µM.

Regarding `CCC(CC)C(=O)N1CC2(CN(C(=O)c3cnn(Cc4ccccc4)c3)C[C@@H]2C(=O)N[C@H](C(=O)NC)[C@@H](C)OCc2ccccc2)C1` [I-74B], the IC50 is greater than 10 µM.

In the case of `CNC(=O)[C@@H](NC(=O)[C@H]1CN(C(=O)C2CCOCC2)CC12CN(C(=O)[C@H]1CC1(C)C)C2)[C@@H](C)OCc1ccccc1` [I-38B], the IC50 was greater than 10 µM.

In the case of `C[C@@H](OCc1ccccc1)[C@H](NC(=O)C1CN(C(=O)c2cnn(Cc3ccccc3)c2)CC12CN(C(=O)[C@H]1CC1(C)C)C2)C(=O)NCC#CCO` (stereo partly shown) [I-20], the IC50 was greater than 10 µM.

In the case of `CNC(=O)[C@@H](NC(=O)[C@@H]1CN(C(=O)c2cnn(Cc3ccccc3)c2)CC12CN(C(=O)C(C)(C)F)C2)[C@@H](C)OCc1ccccc1` [I-90A], the half-inhibitory concentration (IC50) was greater than 10 µM.

As to `CNC(=O)[C@H](COCc1ccccc1)NC(=O)[C@H]1CN(C(=O)c2cnn(Cc3ccccc3)c2)CC12CN(C(=O)C(C)(C)C)C2` [I-100B], the IC50 is greater than 10 µM.

With `CNC(=O)[C@@H](NC(=O)[C@H]1CN(C(=O)c2cnn(Cc3ccc(F)cc3)c2)CC12CN(C(=O)[C@H]1CC1(C)C)C2)[C@@H](C)OCC1CCC(F)(F)CC1` [I-167], the IC50 was greater than 10 µM.

For `CNC(=O)[C@@H](NC(=O)[C@H]1CN(C(=O)c2cccnc2)CC12CN(C(=O)[C@H]1CC1(C)C)C2)[C@@H](C)OCc1ccccc1` [I-42B], the IC50 is greater than 10 µM.

On to `CO[C@H](C)[C@H](NC(=O)[C@@H]1CN(C(=O)c2cnn(C)c2)CC12CN(C(=O)[C@H]1CC1(C)C)C2)C(=O)N1CCCCC1` [I-303], for which the IC50 is greater than 10 µM.

`CC1(C)C[C@@H]1C(=O)N1CC2(CN(C(=O)c3cnn(Cc4ccccc4)c3)C[C@H]2C(=O)N[C@H]2CCc3cc(Cl)ccc32)C1` [I-133A]: the half-maximal inhibitory concentration (IC50) is greater than 10 µM.

Consider `CNC(=O)[C@@H](NC(=O)C1CN(Cc2n[nH]c3ccccc23)CC12CN(C(=O)[C@H]1CC1(C)C)C2)[C@@H](C)OCc1ccccc1` (stereo partly shown) [I-159], for which the IC50 is greater than 10 µM.

With `CNC(=O)[C@@H](NC(=O)[C@H]1CN(C(=O)c2sc(Cl)nc2C)CC12CN(C(=O)[C@H]1CC1(C)C)C2)[C@@H](C)OCC1CCCCC1` [I-208B], the IC50 is greater than 10 µM.

As to `C[C@@H](OCC1CCCCC1)[C@H](NC(=O)[C@@H]1CN(C(=O)c2cnn(Cc3ccccc3)c2)CC12CN(C(=O)[C@H]1CC1(C)C)C2)C(=O)N1CC(CN)C1` [I-239], the half-inhibitory concentration (IC50) is greater than 10 µM.

Take `CNC(=O)[C@@H](NC(=O)[C@@H]1CN(Cc2cn[nH]c2)CC12CN(C(=O)[C@H]1CC1(C)C)C2)[C@@H](C)OCc1ccccc1` [I-50A]: the half-inhibitory concentration (IC50) is greater than 10 µM.

Take `CNC(=O)[C@@H](NC(=O)[C@@H]1CN(C(=O)c2cnn(Cc3ccccc3)c2)CC12CN(C(=O)C1(CCF)CC1)C2)[C@@H](C)OCc1ccccc1` [I-117A]: the 50% inhibitory concentration (IC50) was greater than 10 µM.

For `CNC(=O)[C@@H](NC(=O)[C@H]1CN(C(=O)c2sc(C(C)C)nc2C)CC12CN(C(=O)[C@H]1CC1(C)C)C2)[C@@H](C)OCC1CCCCC1` [I-227B], the half-inhibitory concentration (IC50) is greater than 10 µM.

As to `CNC(=O)[C@@H](NC(=O)[C@@H]1CN(C(=O)c2cnn(Cc3ccccc3)c2)CC12CN(C(=O)CC1CCC1)C2)[C@@H](C)OCc1ccccc1` [I-27A], the IC50 is greater than 10 µM.

As to `CNC(=O)[C@@H](NC(=O)[C@H]1CN(Cc2cnn(Cc3ccccc3)c2)CC12CN(C(=O)[C@H]1CC1(C)C)C2)[C@@H](C)OCc1ccccc1` [I-16B], the IC50 was greater than 10 µM.

Regarding `CNC(=O)[C@@H](NC(=O)[C@@H]1CN(C(=O)c2cnn(CC3CCOCC3)c2)CC12CN(C(=O)[C@H]1CC1(C)C)C2)[C@@H](C)OCc1ccccc1` [I-95A], the IC50 was greater than 10 µM.

With `CNC(=O)[C@@H](NC(=O)[C@H]1CN(C(=O)c2cnn(Cc3ccccc3)c2)CC12CN(C(=O)C(C)(C)C)C2)[C@@H](C)OCC1CCCCC1` [I-174B], the half-maximal inhibitory concentration (IC50) was greater than 10 µM.

In the case of `CNC(=O)[C@@H](NC(=O)[C@@H]1CN(C(=O)c2cnn(Cc3ccccc3)c2)CC12CN(C(=O)[C@H]1CC1(C)C)C2)[C@@H](C)OCC1(C(F)(F)F)CC1` [I-205A], the IC50 was greater than 10 µM.

Take `CNC(=O)[C@@H](NC(=O)[C@@H]1CN(C(=O)c2nccs2)CC12CN(C(=O)[C@H]1CC1(C)C)C2)[C@@H](C)OCC1CCCCC1` [I-169]: the half-maximal inhibitory concentration (IC50) was greater than 10 µM.

Take `CNC(=O)[C@@H](NC(=O)[C@@H]1CN(C(=O)c2cnn(CC(F)(F)F)c2)CC12CN(C(=O)CC1CC1)C2)[C@@H](C)OCc1ccccc1` [I-43A]: the half-inhibitory concentration (IC50) is greater than 10 µM.

Regarding `CNC(=O)[C@@H](NC(=O)[C@@H]1CN(C(=O)c2cnn(Cc3ccccc3)c2)CC12CN(C(=O)c1ccccc1)C2)[C@@H](C)OCc1ccccc1` [I-26A], the IC50 was greater than 10 µM.

With `CC1(C)C[C@@H]1C(=O)N1CC2(CN(C(=O)c3cnn(Cc4ccccc4)c3)C[C@H]2C(=O)NCC2CCCCO2)C1` (stereo partly shown) [I-221], the 50% inhibitory concentration (IC50) is greater than 10 µM.
